Results published in US11939361B2, “Compositions of peptide inhibitors of Interleukin-23 receptor” (Janssen Pharmaceutica NV, priority 2020, dated 2024).

How the values were obtained:
clinical = conditions: human, in vivo
[1] = test system: rat IL-23 induced skin inflammation model; test: Rat IL-23 induced ear thickening; assay type: in vivo, Sprague-Dawley rats; set-up: key to IL-23 induced ear thickening, comparison to control (significance): ns: not significant; **: p < 0.01; ***: p < 0.001; ****: p < 0.0001; conditions: for IL-23 induced ear thickening, comparison to control (significance): control Vehicle
Description: Ear inflammation was induced in Sprague-Dawley rats by daily intradermal injection of recombinant rat IL-23 on study days 0-3. Treatment with the peptide of SEQ ID NO: 1 (dose response by oral gavage; 1, 3, 10, 30, 100, and 300 mg/kg, twice a day) was initiated prophylactically starting one day prior to and continued through day 3 after induction of inflammation. All rats were humanely euthanized on day 4. An anti-IL-23 monoclonal antibody (administered intraperitoneally on days −1 and day 3) was included in all studies as a positive control and comparator.
Recombinant rat IL-23 was diluted with PBS to a concentration of 75 μg/mL, divided into 2.0 mL aliquots, and stored at −80° C. Daily from day 0 through day 3, rats were anesthetized with isoflurane and IL-23 was intradermally injected (i.d.) into the right ear (1.5 μg in a volume of 20 μL). In the control group, 20 μL of PBS was injected.
Starting the morning prior to IL-23 injection through the evening of day 3, rats were dosed with either vehicle (phosphate buffer) or the peptide of SEQ ID NO: 1 compound twice daily (approximately 10 hours apart between doses during the day) by oral gavage (p.o.) in a volume of 5 mL/kg. In one experiment, the peptide of SEQ ID NO: 1 was also administered subcutaneously (s.c.) in a volume of 5 mL/kg.
Anti-IL-23p19 antibody or isotype antibody was administered via intraperitoneal injection (i.p.) in a volume of 5 mL/kg on days −1 and 3.
The purpose of the rat ear thickening experiment is to determine whether the orally dosed peptide of SEQ ID NO: 1 has sufficient systemic exposure to provide inhibition of IL-23R in skin tissue, thus modeling orally dosed therapeutic efficacy in psoriatic skin tissue. The animals from Example 19 were also used for Example 20. On day 0, prior to IL-23 injection, the ipsilateral ears averaged approximately 0.4 mm. In rats injected with saline, the ears did swell as a result of the repeated intradermal injections, by an average of 0.053 mm by day 4. By comparison, injection of IL-23 caused the ears of both vehicle-treated and isotype antibody-treated rats to progressively increase in thickness, reaching an average of approximately 0.240 to 0.242 mm by day 4, respectively. […] Reductions in ear thickness at doses of 2 mg/kg, s.c. and 20 mg/kg, p.o., q.d. were not statistically significant (FIG. 9 and Table 15).

`CC(=O)NCCCC[C@@H]1NC(=O)[C@H](Cc2c[nH]c3c(C)cccc23)NC(=O)[C@H]([C@@H](C)O)NC(=O)[C@H](CC(N)=O)NC(=O)[C@@H](NC(C)=O)C(C)(C)SSC(C)(C)[C@@H](C(=O)N[C@@H](Cc2ccc(OCCN)cc2)C(=O)N[C@@H](Cc2ccc3ccccc3c2)C(=O)NC2(C(=O)N[C@@H](CCC(=O)O)C(=O)N[C@@H](CC(N)=O)C(=O)N[C@@H](Cc3cccnc3)C(=O)N(C)CC(N)=O)CCOCC2)NC1=O` [SEQ ID NO: 1, Ac-[Pen]*—N-T-[W(7-Me)]-[Lys(Ac)]-[Pen]*-Phe[4-(2-aminoethoxy)]-[2-Nal]-[THP]-E-N-[3-Pal]-Sarc-NH2] gave a half-life (clinical) of 10 to 12 h, an AUC (clinical; po, 10 mg) of 1.56 ng·h/mL and an AUC (clinical; po, 25 mg) of 6.47 ng·h/mL. The AUC (clinical; po, 100 mg) was 20.8 ng·h/mL, the AUC (clinical; po, 300 mg) was 51 ng·h/mL and the half-life (clinical; po, 300 mg) was 9.28 h. It also gave an AUC (clinical; po, 1000 mg) of 141 ng·h/mL, a Cmax (clinical; po, 1000 mg) of 8.3 ng/mL and a Tmax (clinical; po, 1000 mg) of 4.5 h. For the same compound, the “IL-23 induced ear thickening, comparison to control (significance)” value (from here on “IL-23 induced ear thickening … (significance)”) ([1]; 1 mg/kg, p.o., b.i.d., Day 1) was “ns”, the “IL-23 induced ear thickening … (significance)” value ([1]; 1 mg/kg, p.o., b.i.d., Day 2) was “ns” and the “IL-23 induced ear thickening … (significance)” value ([1]; 1 mg/kg, p.o., b.i.d., Day 3) was “**** (p < 0.0001)”. For the same compound, the “IL-23 induced ear thickening … (significance)” value ([1]; 1 mg/kg, p.o., b.i.d., Day 4) was “**** (p < 0.0001)”, the “IL-23 induced ear thickening … (significance)” value ([1]; 2 mg/kg, s.c., b.i.d., Day 1) was “ns” and the “IL-23 induced ear thickening … (significance)” value ([1]; 2 mg/kg, s.c., b.i.d., Day 2) was “ns”. For the same compound, the “IL-23 induced ear thickening … (significance)” value ([1]; 2 mg/kg, s.c., b.i.d., Day 3) was “ns”, the “IL-23 induced ear thickening … (significance)” value ([1]; 2 mg/kg, s.c., b.i.d., Day 4) was “ns” and the “IL-23 induced ear thickening … (significance)” value ([1]; 3 mg/kg, p.o., b.i.d., Day 1) was “ns”. For the same compound, the “IL-23 induced ear thickening … (significance)” value ([1]; 3 mg/kg, p.o., b.i.d., Day 2) was “ns”, the “IL-23 induced ear thickening … (significance)” value ([1]; 3 mg/kg, p.o., b.i.d., Day 3) was “*** (p < 0.001)” and the “IL-23 induced ear thickening … (significance)” value ([1]; 3 mg/kg, p.o., b.i.d., Day 4) was “*** (p < 0.001)”. For the same compound, the “IL-23 induced ear thickening … (significance)” value ([1]; 10 mg/kg, p.o., b.i.d., Day 1) was “ns”, the “IL-23 induced ear thickening … (significance)” value ([1]; 10 mg/kg, p.o., b.i.d., Day 2) was “ns” and the “IL-23 induced ear thickening … (significance)” value ([1]; 10 mg/kg, p.o., b.i.d., Day 3) was “*** (p < 0.001)”. For the same compound, the “IL-23 induced ear thickening … (significance)” value ([1]; 10 mg/kg, p.o., b.i.d., Day 4) was “**** (p < 0.0001)”, the “IL-23 induced ear thickening … (significance)” value ([1]; 20 mg/kg, p.o., q.d., Day 1) was “ns” and the “IL-23 induced ear thickening … (significance)” value ([1]; 20 mg/kg, p.o., q.d., Day 2) was “ns”. The “IL-23 induced ear thickening … (significance)” value ([1]; 20 mg/kg, p.o., q.d., Day 3) was “ns”, the “IL-23 induced ear thickening … (significance)” value ([1]; 20 mg/kg, p.o., q.d., Day 4) was “ns” and the “IL-23 induced ear thickening … (significance)” value ([1]; 30 mg/kg, p.o., b.i.d., Day 1) was “ns”. The “IL-23 induced ear thickening … (significance)” value ([1]; 30 mg/kg, p.o., b.i.d., Day 3) was “**** (p < 0.0001)”, the “IL-23 induced ear thickening … (significance)” value ([1]; 30 mg/kg, p.o., b.i.d., Day 4) was “**** (p < 0.0001)” and the “IL-23 induced ear thickening … (significance)” value ([1]; 100 mg/kg, p.o., b.i.d., Day 1) was “ns”. The “IL-23 induced ear thickening … (significance)” value ([1]; 100 mg/kg, p.o., b.i.d., Day 2) was “ns”, the “IL-23 induced ear thickening … (significance)” value ([1]; 100 mg/kg, p.o., b.i.d., Day 3) was “**** (p < 0.0001)” and the “IL-23 induced ear thickening … (significance)” value ([1]; 100 mg/kg, p.o., b.i.d., Day 4) was “**** (p < 0.0001)”. For the same compound, the “day 4 ear swelling, average” value ([1]; 300 mg/kg, b.i.d., oral) was 0.120 mm, the “IL-23 induced ear thickening … (significance)” value ([1]; 300 mg/kg, p.o., b.i.d., Day 1) was “ns” and the “IL-23 induced ear thickening … (significance)” value ([1]; 300 mg/kg, p.o., b.i.d., Day 2) was “ns”. For the same compound, the “IL-23 induced ear thickening … (significance)” value ([1]; 300 mg/kg, p.o., b.i.d., Day 3) was “*** (p < 0.001)”, the “IL-23 induced ear thickening … (significance)” value ([1]; 300 mg/kg, p.o., b.i.d., Day 4) was “**** (p < 0.0001)” and the “efficacy on ear thickening” value ([1]; doses of 10 mg/kg (p.o., b.i.d.) and above) was “equaled or exceeded that of anti-IL-23 antibody treatment”. For the same compound, the “IL-23 induced ear thickening” value ([1]; orally administered) was “prevented”.
